Measurements as given in patent publication US5948814A, “Genistein for the treatment of cystic fibrosis” (priority 1998, dated 1999).
Like-named read-outs stand apart in the source and are kept apart here.

Experiments:
wt-CFTR [1] = target: T1, wt-CFTR (Homo sapiens, UniProt P13569); experiment: cell-based; assay type: cell-based; parameters: expressed in transfected cells
Method: (§1) FIG. 1 is a graph representing the dose-responses relationship for forskolin-dependent I^- efflux. Peak rates of I^- efflux in the presence (closed symbols) or absence (open symbols) of 50 μM genistein were obtained with NIH/3T3-cystic fibrosis transmembrane conductance regulator (NIH/3T3-CFTR) (circles) and NTH/3T3-Δphenylalanine 508 (ΔF508) cells (triangles). NIH/3T3-CFTR cells are cultured at 37° C. NIH/3T3-Δ508 cells are cultured at 27° C. for 3 days prior to assay. Data are mean values±SE (n>5). Lines were fit by nonlinear least squares.
(§2) Cell culture: NIH/3T3-CFTR, NIH/3T3-ΔF508, and NIH/3T3 mock cells (generous gifts from Dr. Richard Mulligan of Children's Hospital and Medical Center, Harvard Medical School) were grown as described [Bradbury et al., 1992] at 37° C. and 5% CO2 in Dulbecco's modified Eagle's medium-H21 supplemented with 10% new-born calf serum, 4 mM glutamine, 25 mM glucose, 100 μg/ml penicillin, 100 μg/ml streptomycin, and 50 μg/ml gentamicin. Cells were maintained in T75 flasks, passaged at 90-95% confluency, and split one to four. For measurements of I^- efflux and in vivo phosphorylation, cells were seeded onto 35-mm dishes at […]. For patch-clamp experiments, cells were grown on coverglass chips in 35-mm culture dishes. Media were replaced 24 hours after plating and thereafter every 48 hours. In all cases, media were changed on the day before I^- efflux studies, NIH/3T3-ΔF508 cells were transferred to 27° C. three days before use, and 1 day prior to study, media were supplemented with 5 mM butyrate. For patch-clamp studies, where a constant level of functional ΔF508-CFTR was not essential, NIH/3T3-ΔF508 cells were cultured at 27° C. for 2-6 days before use. Calu-3 cells were grown and maintained as described by Hunter [1995].
(§3) I^- efflux: I^- efflux was measured as described previously [Reenstra et al., 1996]. Briefly, cells were incubated for 30 minutes with 37° C. I^- efflux buffer [(in mM) 141 NaCl, 4 KCl, 1 KH2 PO4, 0.9 MgCl2, 1.7 CaCl2. 10 N-2hydroxyethylpiperazine-N'-2-ethanesulfonic acid (HEPES), 25 glucose pH 7.4] containing 5 μCi/ml carrier-free ^125 I^- (sodium salt). Extracellular ^125 I^- was removed by washing four times with efflux buffer, and the rate of loss of intracellular ^125 I^- was determined by replacing the bathing solution with 37° C. efflux buffer every 60 seconds for 12 minutes. Time-dependent rates of ^125 I^- efflux are calculated from R=ln(^125 I^-t1 /^125 I^-t2)/(t1-t2), where ^125 I^-t is the intracellular ^125 I^- at time t and t1 and t2 are successive time points. Dose-response curves were obtained from peak rates of 125I^- efflux by nonlinear least squares fitting to R=[Ro +Rmx ·([fsk]/K1/2)]/[1+([fsk]/K1/2)], where Ro and Rmx are the rates of ^125 I efflux at zero and infinite concentration of forskolin (fsk), and K1/2 is the concentration of agonist that gives a half-maximal change.
To investigate effects of genistein on CFTR activity, the rates of I^- efflux were measured from stably transfected NIH/3T3 cells expressing wt- and ΔF508-CFTR (NIH/33-CFTR and NIH/3T3-ΔF508 cells, respectively).

tyrosine kinases = conditions: cited from earlier work
ΔF508-CFTR = ΔF508-CFTR (Homo sapiens, UniProt P13569, DEL508-508); experiment: Forskolin-dependent I- efflux, NIH/3T3-ΔF508 cells
ΔF508-CFTR, sequence (P13569 with tags, fused parts or gaps DEL508-508): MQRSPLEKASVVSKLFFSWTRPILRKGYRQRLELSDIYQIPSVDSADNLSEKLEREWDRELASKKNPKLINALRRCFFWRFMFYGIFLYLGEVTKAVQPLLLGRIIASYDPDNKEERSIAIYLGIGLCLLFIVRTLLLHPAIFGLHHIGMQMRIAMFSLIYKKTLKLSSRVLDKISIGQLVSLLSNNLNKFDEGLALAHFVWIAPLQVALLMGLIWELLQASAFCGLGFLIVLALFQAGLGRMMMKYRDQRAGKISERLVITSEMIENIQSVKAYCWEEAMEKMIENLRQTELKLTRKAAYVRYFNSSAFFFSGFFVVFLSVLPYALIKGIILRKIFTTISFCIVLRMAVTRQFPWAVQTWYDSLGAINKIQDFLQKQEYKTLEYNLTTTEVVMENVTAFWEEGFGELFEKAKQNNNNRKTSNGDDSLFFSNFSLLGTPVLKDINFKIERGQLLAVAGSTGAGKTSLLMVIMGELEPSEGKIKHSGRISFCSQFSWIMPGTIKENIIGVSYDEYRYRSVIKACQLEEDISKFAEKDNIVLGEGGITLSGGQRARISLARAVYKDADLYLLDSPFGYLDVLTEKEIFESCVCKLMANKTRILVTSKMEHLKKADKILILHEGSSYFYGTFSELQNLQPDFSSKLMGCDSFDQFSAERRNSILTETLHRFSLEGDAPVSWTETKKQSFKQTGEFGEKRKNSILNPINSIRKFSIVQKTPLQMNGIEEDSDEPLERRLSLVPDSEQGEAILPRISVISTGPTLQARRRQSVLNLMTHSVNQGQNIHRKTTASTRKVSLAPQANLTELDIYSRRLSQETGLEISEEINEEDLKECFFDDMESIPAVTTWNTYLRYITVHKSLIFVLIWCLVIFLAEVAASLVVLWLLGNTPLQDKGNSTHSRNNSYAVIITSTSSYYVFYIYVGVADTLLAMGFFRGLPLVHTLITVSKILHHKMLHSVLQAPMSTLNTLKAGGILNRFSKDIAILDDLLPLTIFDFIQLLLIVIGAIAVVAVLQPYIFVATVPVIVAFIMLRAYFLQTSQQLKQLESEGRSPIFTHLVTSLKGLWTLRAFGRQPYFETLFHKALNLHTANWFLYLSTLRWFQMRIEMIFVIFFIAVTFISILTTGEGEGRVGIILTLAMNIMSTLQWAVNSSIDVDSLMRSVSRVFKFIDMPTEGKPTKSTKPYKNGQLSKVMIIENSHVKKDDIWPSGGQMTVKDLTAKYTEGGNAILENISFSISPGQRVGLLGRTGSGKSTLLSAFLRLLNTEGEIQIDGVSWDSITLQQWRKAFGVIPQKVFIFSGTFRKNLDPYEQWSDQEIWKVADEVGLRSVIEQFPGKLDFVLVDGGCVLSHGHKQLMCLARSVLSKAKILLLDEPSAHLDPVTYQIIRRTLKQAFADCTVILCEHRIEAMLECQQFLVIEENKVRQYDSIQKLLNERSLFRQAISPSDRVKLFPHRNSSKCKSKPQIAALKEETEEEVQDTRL
Method: as §1
FIG. 2 is a bar graph showing the effects of stimulation of ΔF508-CFTR by forskolin and genistein. Peak rates of I^- efflux were measured with NIH/3T3-ΔF508cells that were cultured at 37° C. (open bars) or at 27° C. for 3 days prior to assay (filled bars). I^- efflux was assayed without added agonist as a control and with 1 μM forskolin (fsk), 50 μM genistein (gen), or 1 μM forskolin plus 50 μM genistein (fsk+gen). Error bars are SE for n>7.
as §2, §3
To investigate effects of genistein on CFTR activity, the rates of I^- efflux were measured from stably transfected NIH/3T3 cells expressing wt- and ΔF508-CFTR (NIH/33-CFTR and NIH/3T3-ΔF508 cells, respectively). […] To increase ΔF508-CFTR channel activity, NIH/3T3-ΔF508 cells were cultured at 27° C. for 3 days [Denning et al., 1992].

[2] = tested on: acid secretion and osteopathic bone resorption; conditions: cited from earlier work
wt-CFTR [3] = target: T1, wt-CFTR
Method: FIGS. 9A and B are recordings of the effects of genistein on CFTR gating in excised inside-out patches from NIH/3T3-CFTR or NIH/3T3-ΔF508 cells. CFTR channels were activated by 10 μM forskolin +20 nM calyculin A before excision into an inside-out configuration. Presence of calyculin A helps to slow channel dephosphorylation. (A): continuous 14.5 minute recording of a patch containing wt-CFTR. Expanded traces are 22 seconds in length. ATP (500 μM) with or without 20 μM genistein was present as indicated. (B): 2 traces of 44 seconds in length of an excised inside-out patch with CFTR-ΔF508.
Electrophysiology: CFTR channel currents were recorded at room temperature (~22° C.) with a patch-clamp amplifier (EPC-9, Heka Electronic), filtered at 100 Hz with a built-in three-pole Bessel filter, and stored on videotapes. Data were subsequently refiltered at 25 Hz with an eight-pole Bessel filter (Frequency Device, Havervill, Mass.) and captured onto a hard disk at a sampling rate of 50 Hz. […] Patch-clamp electrodes were made from Corning 7052 glass capillaries (Warner Instrument, Hammed, Conn.). The pipette resistance was usually 3-5 M.OMEGA., and the seal resistance was >20 G.OMEGA.. The pipette solution contained (in mM) 140 N-methyl-D-glucamine chloride (NMDG-C1), 2 MgCl2, 5Ca Cl2, and 10 HEPES (pH 7.4 with NMDG). The superfusion solution contained (in mM) 150 […], 2 MgCl2, 1 EGTA, 5 glucose, and 5 HEPES (pH 7.4 with NaOH). In excised inside-out patch experiments, the bath solution contained (in mM) 130 MNDG-Cl, 10 EGTA, 10 HEPES, 20 tetraethylammonium chloride, 8 Tris, and 2 MgCl2 (pH 7.4 with NMDG). Pipette potential was held at 50 mV relative to the bath. Downward deflections represent channel opening.
Channels were first activated in cell-attached patches with forskolin plus calyculin A, a membrane-permeant phosphatase inhibitor [Suganuma et al., 1991]. Patches were then excised into an inside-out configuration.

T1 sequence (P13569 whole entry): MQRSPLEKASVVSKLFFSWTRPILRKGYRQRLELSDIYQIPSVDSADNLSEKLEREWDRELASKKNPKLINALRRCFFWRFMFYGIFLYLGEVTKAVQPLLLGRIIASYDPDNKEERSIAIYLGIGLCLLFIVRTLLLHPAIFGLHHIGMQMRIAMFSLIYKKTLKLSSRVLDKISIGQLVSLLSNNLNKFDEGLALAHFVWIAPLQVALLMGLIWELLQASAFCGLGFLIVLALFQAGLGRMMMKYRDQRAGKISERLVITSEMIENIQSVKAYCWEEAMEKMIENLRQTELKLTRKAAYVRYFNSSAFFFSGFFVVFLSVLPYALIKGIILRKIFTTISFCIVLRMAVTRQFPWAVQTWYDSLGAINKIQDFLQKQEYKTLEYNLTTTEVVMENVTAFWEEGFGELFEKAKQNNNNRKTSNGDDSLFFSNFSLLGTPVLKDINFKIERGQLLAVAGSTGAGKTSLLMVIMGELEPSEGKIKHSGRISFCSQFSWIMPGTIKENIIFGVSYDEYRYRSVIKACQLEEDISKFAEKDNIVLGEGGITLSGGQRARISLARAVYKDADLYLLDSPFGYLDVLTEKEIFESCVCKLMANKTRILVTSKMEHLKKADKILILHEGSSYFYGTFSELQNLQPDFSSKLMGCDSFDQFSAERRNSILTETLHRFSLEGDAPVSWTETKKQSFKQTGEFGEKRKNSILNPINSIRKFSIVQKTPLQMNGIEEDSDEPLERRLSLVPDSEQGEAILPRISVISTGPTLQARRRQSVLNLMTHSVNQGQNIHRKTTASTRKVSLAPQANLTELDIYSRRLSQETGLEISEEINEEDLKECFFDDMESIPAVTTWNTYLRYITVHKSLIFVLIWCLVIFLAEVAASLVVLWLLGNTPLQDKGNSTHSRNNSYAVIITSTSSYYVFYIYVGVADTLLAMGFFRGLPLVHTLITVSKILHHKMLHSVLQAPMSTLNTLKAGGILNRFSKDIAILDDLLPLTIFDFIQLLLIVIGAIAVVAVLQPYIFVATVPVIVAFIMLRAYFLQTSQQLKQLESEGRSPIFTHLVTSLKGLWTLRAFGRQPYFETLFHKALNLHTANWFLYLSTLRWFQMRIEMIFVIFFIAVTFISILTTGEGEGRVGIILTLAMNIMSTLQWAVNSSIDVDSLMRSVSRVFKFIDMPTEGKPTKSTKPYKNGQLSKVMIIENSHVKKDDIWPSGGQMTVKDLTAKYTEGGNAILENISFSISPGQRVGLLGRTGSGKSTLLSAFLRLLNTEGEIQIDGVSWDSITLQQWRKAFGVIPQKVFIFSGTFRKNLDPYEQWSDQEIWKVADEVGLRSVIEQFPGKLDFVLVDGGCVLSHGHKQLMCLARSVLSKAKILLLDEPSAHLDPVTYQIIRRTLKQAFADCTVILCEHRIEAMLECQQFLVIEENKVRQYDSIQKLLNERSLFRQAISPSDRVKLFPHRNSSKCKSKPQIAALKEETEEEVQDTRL

SMILES	effect on I- efflux at high forskolin concentrations (wt-CFTR [1]; 50 μM genistein, high forskolin)	inhibition of tyrosine kinases (tyrosine kinases)	increase of the maximal forskolin-dependent I- efflux response by genistein (ΔF508-CFTR; 50 μM genistein, cells cultured at 27° C. for 3 days)	inhibition of acid secretion and osteopathic bone resorption [2]	increase of ATP-induced currents by genistein (wt-CFTR [3]; 50 μM genistein, n=8)	opening of channels in absence of ATP (wt-CFTR [3]; 50 μM genistein, no ATP)	channel open time (wt-CFTR [3]; ATP with genistein, stated for both wt- and ΔF508-CFTR)	increase in Po by genistein (wt-CFTR [3]; excised patches, ATP)	EC50 (wt-CFTR [1])	stimulation of normal CFTR activity (wt-CFTR [1])	maximal fold induction at 10 µM (wt-CFTR [1]; mouse, read-out: maximal stimulation of I- efflux)	EC50 (wt-CFTR [1]; read-out: K1/2 of forskolin for I- efflux in presence of genistein, with 50 μM genistein, NIH/3T3-CFTR cells)	EC50 (ΔF508-CFTR)	stimulation of mutant ΔF508-CFTR (ΔF508-CFTR)	maximal fold induction (ΔF508-CFTR; mouse, read-out: maximal forskolin-dependent increase in I- efflux)	EC50 (ΔF508-CFTR; read-out: K1/2 of forskolin for I- efflux in presence of genistein, with 50 μM genistein, cells cultured at 27° C. for 3 days)	activation at 10 µM (ΔF508-CFTR; read-out: increase of I- efflux)
O=c1c(-c2ccc(O)cc2)coc2cc(O)cc(O)c12 [Genistein, 4',5,7-trihydroxyisoflavone]	had no effect at high forskolin concentrations	inhibits	3.7±0.4 fold	effectively inhibits acid secretion and osteopathic bone resorption	2.2±0.1 fold	did not open wt-CFTR channels in the absence of ATP	2,033±173 milliseconds	twofold increase in the Po	–	–	–	–	–	–	–	–	–
C=C[C@@]1(C)CC(=O)[C@]2(O)[C@@]3(C)[C@@H](O)CCC(C)(C)[C@@H]3[C@H](O)[C@H](OC(C)=O)[C@@]2(C)O1 [forskolin]	–	–	–	–	–	–	–	–	110 ± 30 nM	stimulates normal CFTR activity very well	8.2 ± 0.4	50 ± 20 nM	670 ± 260 nM	had little affect on mutant ΔF508-CFTR	1.65 ± 0.08	16 ± 5 nM	< 15%
